This is an account of results in PubChem BioAssay (NCI).

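These data come from cells grown in 96-well plates and exposed to compound for 48 hours at five concentrations. GI50 is the concentration that inhibits growth by half. At the TGI there is no net growth.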

Among the test systems are HL-60(TB) leukemia; MDA-MB-231 breast; HS 578T breast; PC-3 prostate; NCI-H226 lung; NCI-H460 lung; OVCAR-5 ovarian; UACC-62 melanoma; HT29 colon; M14 melanoma.
Common to all, as to assay: NCI tumour cell line growth inhibition, 48 h

In the case of `Cc1ccc(C(NC(=O)c2ccccc2)c2ccc3cccnc3c2O)cc1` (stereo not given), the GI50 is 288 nM in the experiment with HL-60(TB) leukemia; 315 nM in the experiment with MDA-MB-231 breast; 1250 nM with HS 578T breast; 354 nM with PC-3 prostate; 302 nM in the experiment on NCI-H226 lung; 260 nM in the experiment with NCI-H460 lung. The GI50 in the experiment with OVCAR-5 ovarian was 611 nM; in the experiment on UACC-62 melanoma, 236 nM; in the experiment on HT29 colon, 536 nM; in the experiment on M14 melanoma, 244 nM. Moreover, the TGI with HL-60(TB) leukemia is 1000 nM; in the experiment with MDA-MB-231 breast, 22400 nM; with HS 578T breast, greater than 74700 nM; with PC-3 prostate it was 26300 nM; in the experiment with NCI-H226 lung, 3690 nM; in the experiment with NCI-H460 lung, 3080 nM. In addition, the TGI in the experiment with OVCAR-5 ovarian is greater than 70400 nM; in the experiment on UACC-62 melanoma it was 763 nM; in the experiment with HT29 colon it was 19400 nM; in the experiment on M14 melanoma it was 2380 nM.

Take `O=[N+]([O-])c1ccc(Oc2nc(Nc3ccc(O[C@H]4CO[C@H]5[C@@H]4OC[C@@H]5O)c(Cl)c3)ncc2F)c(Cl)c1`: the GI50 in the experiment with HL-60(TB) leukemia is 1530 nM; in the experiment with MDA-MB-231 breast it was 1600 nM; in the experiment with HS 578T breast, 516 nM; in the experiment on PC-3 prostate, 1660 nM; with NCI-H226 lung, 730 nM; in the experiment on NCI-H460 lung it was 853 nM. In addition, the GI50 with OVCAR-5 ovarian is 2330 nM; in the experiment on UACC-62 melanoma, 843 nM; in the experiment with HT29 colon it was 2430 nM; in the experiment on M14 melanoma, 565 nM. Besides, the TGI with HL-60(TB) leukemia is 4110 nM; in the experiment with MDA-MB-231 breast it was 7390 nM; in the experiment on HS 578T breast, 3430 nM; with PC-3 prostate it was 7040 nM; with NCI-H226 lung, 2500 nM; with NCI-H460 lung, 2980 nM. The TGI in the experiment on OVCAR-5 ovarian is 16800 nM; with UACC-62 melanoma it was 2270 nM; with HT29 colon it was 11700 nM; in the experiment with M14 melanoma it was 1930 nM.

With `CCN1C(=O)CCCc2c1ccc(Nc1ncc(Cl)c(NC3[C@@H](C(N)=O)[C@@H]4C=C[C@H]3C4)n1)c2OC` (stereo not given in full), the GI50 with HL-60(TB) leukemia was 667 nM; in the experiment with MDA-MB-231 breast, 1950 nM; with HS 578T breast, 1880 nM; with PC-3 prostate it was 1490 nM; with NCI-H226 lung it was 1560 nM; in the experiment with NCI-H460 lung, 661 nM. For the same compound, the GI50 with OVCAR-5 ovarian is 1340 nM; with UACC-62 melanoma it was 933 nM; in the experiment with HT29 colon, 791 nM; with M14 melanoma, 770 nM. Moreover, the TGI in the experiment with HL-60(TB) leukemia amounted to 5460 nM; with MDA-MB-231 breast, 14400 nM; in the experiment on HS 578T breast, 8260 nM; with PC-3 prostate, 18000 nM; in the experiment on NCI-H226 lung, 12700 nM; with NCI-H460 lung, 13400 nM. Moreover, the TGI in the experiment on OVCAR-5 ovarian is greater than 22200 nM; in the experiment on UACC-62 melanoma it was 2590 nM; in the experiment on HT29 colon it was 9060 nM; with M14 melanoma it was 2320 nM.

As for `Cc1cc2cc3ccc(N(C)C)cc3nc2cc1N`, the GI50 with HL-60(TB) leukemia is 805 nM; with MDA-MB-231 breast it was 1120 nM; in the experiment on HS 578T breast it was 510 nM; with PC-3 prostate, 992 nM; in the experiment with NCI-H226 lung, 584 nM; in the experiment with NCI-H460 lung it was 234 nM. For the same compound, the GI50 is 1260 nM in the experiment on OVCAR-5 ovarian, 744 nM in the experiment with UACC-62 melanoma, 327 nM in the experiment on HT29 colon and 682 nM in the experiment on M14 melanoma. Moreover, the TGI with HL-60(TB) leukemia worked out at 5090 nM; in the experiment on MDA-MB-231 breast it was 2880 nM; in the experiment with HS 578T breast it was 3480 nM; in the experiment on PC-3 prostate, 4910 nM; in the experiment with NCI-H226 lung, 3600 nM; in the experiment on NCI-H460 lung, 680 nM. Besides, the TGI is 6550 nM in the experiment on OVCAR-5 ovarian, 2710 nM in the experiment on UACC-62 melanoma, 1760 nM in the experiment with HT29 colon and 2140 nM with M14 melanoma.

For the compound `Cn1nc(-c2ccc(Cl)cc2)nc2c(=O)n(C)c(=O)nc1-2`, the GI50 in the experiment on HL-60(TB) leukemia was 1110 nM; with MDA-MB-231 breast it was 1280 nM; in the experiment on HS 578T breast, 1350 nM; with PC-3 prostate it was 1190 nM; in the experiment on NCI-H226 lung it was 2380 nM; in the experiment on NCI-H460 lung, 1210 nM. For the same compound, the GI50 in the experiment on OVCAR-5 ovarian was 949 nM; in the experiment with UACC-62 melanoma it was 745 nM; in the experiment on HT29 colon it was 1110 nM; in the experiment with M14 melanoma, 750 nM. For the same compound, the TGI with HL-60(TB) leukemia is 3690 nM; in the experiment on MDA-MB-231 breast it was 7340 nM; in the experiment with HS 578T breast it was 3510 nM; in the experiment on PC-3 prostate, 7900 nM; in the experiment with NCI-H226 lung, 5830 nM; in the experiment on NCI-H460 lung, 4940 nM. The TGI in the experiment on OVCAR-5 ovarian worked out at 1770 nM; in the experiment on UACC-62 melanoma, 1680 nM; in the experiment on HT29 colon it was 11300 nM; with M14 melanoma it was 1410 nM.

`O=[N+]([O-])c1ccc(C2CC(c3ccccc3Cl)=Nc3ccccc3S2=O)cc1` (stereo not given): the TGI stood at 3630 nM in the experiment on HL-60(TB) leukemia; 5290 nM in the experiment on MDA-MB-231 breast; 7460 nM in the experiment with HS 578T breast; 17300 nM in the experiment on PC-3 prostate; 17600 nM with NCI-H226 lung; 17900 nM in the experiment with NCI-H460 lung. Besides, the TGI in the experiment with OVCAR-5 ovarian came to 18600 nM; in the experiment on UACC-62 melanoma it was 6730 nM; in the experiment on HT29 colon, 5730 nM; in the experiment with M14 melanoma, 20700 nM.

Consider `N[C@@H]1C(=O)N2C(C(=O)OC(c3ccccc3)c3ccccc3)=C(CCl)CS[C@H]12`, for which the GI50 in the experiment with HL-60(TB) leukemia was 2460 nM; in the experiment with MDA-MB-231 breast, 25200 nM; with HS 578T breast it was 46800 nM; in the experiment on PC-3 prostate, 32400 nM; in the experiment with NCI-H226 lung it was 55200 nM; in the experiment on NCI-H460 lung, 34000 nM. For the same compound, the GI50 in the experiment on OVCAR-5 ovarian is 44500 nM; in the experiment on UACC-62 melanoma, 42700 nM; in the experiment with HT29 colon it was 30200 nM; in the experiment with M14 melanoma, 34800 nM. Further, the TGI with HL-60(TB) leukemia is greater than 38300 nM; with MDA-MB-231 breast, 63100 nM; with HS 578T breast, greater than 100000 nM; in the experiment with PC-3 prostate, greater than 100000 nM; with NCI-H226 lung, greater than 100000 nM; in the experiment with NCI-H460 lung, greater than 100000 nM. Besides, the TGI with OVCAR-5 ovarian was greater than 100000 nM; with UACC-62 melanoma, greater than 91200 nM; with HT29 colon, greater than 94000 nM; in the experiment with M14 melanoma it was greater than 96200 nM.

In the case of `Clc1ccc(-c2nnc(-c3cccc4ccccc34)o2)cc1Cl`, the TGI with HL-60(TB) leukemia, in the experiment on MDA-MB-231 breast, in the experiment on HS 578T breast, in the experiment with PC-3 prostate, in the experiment on NCI-H226 lung and in the experiment with NCI-H460 lung was greater than 100000 nM throughout. Moreover, the TGI in the experiment with OVCAR-5 ovarian, with UACC-62 melanoma, in the experiment on HT29 colon and with M14 melanoma was greater than 100000 nM throughout.
